From ChEMBL document CHEMBL1201862, “PubChem BioAssay data set” (2004)
The source made the active and inactive calls. No stated cut-off is given here; in the data, actives have a measured IC50 and inactives only a lower limit.

Molecular target: Envelope glycoprotein gp160 (Human immunodeficiency virus 1, UniProt Q6QLK5)
Experiment: cell-free HIV fusion peptide-binding blockers – biochemical, uHTS, fluorescence dequenching, […] (AID 1986)

Envelope glycoprotein gp160, sequence (Q6QLK5 whole entry, the tested form may be a part): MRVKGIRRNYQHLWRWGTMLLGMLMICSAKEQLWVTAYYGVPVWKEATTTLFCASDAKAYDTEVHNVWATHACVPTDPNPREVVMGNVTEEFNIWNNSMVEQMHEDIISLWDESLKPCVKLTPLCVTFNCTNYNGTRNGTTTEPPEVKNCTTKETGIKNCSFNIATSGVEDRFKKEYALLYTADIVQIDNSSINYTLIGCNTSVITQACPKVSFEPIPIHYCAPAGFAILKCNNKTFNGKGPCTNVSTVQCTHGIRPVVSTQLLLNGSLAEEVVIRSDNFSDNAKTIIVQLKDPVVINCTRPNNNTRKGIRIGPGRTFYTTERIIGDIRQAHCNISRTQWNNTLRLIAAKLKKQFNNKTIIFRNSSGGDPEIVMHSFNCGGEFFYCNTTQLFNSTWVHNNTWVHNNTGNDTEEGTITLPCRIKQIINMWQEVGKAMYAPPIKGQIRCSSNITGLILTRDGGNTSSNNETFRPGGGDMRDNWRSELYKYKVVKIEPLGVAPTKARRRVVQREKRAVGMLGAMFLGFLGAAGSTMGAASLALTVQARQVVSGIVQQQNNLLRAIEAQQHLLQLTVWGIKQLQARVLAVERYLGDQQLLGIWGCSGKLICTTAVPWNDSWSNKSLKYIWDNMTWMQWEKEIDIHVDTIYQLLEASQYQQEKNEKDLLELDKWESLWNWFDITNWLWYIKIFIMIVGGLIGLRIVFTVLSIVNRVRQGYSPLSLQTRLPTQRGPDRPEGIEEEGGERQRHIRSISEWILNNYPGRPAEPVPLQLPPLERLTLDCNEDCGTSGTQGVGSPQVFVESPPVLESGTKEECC

## Cc1cc(C)c2nc(N3C(=O)C(O)=C(C(=O)c4ccco4)C3c3ccco3)sc2c1 (stereo unspecified)
  IC50: 12.4 µM (active)
